Results on ten molecules are retold here after patent publication US20260274892A1, “MACROCYCLIC BROAD SPECTRUM ANTIBIOTICS” (RQx Pharmaceuticals, Inc., priority 2017, published 2026).

The assay concerns Escherichia coli ATCC 25922. The assay can be described thus: Minimum inhibitory concentration (MIC), CLSI broth micro-dilution, E. coli. The class given is cell-based. The following applies: Escherichia coli. In outline: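 Antibacterial potency is measured as MIC by the CLSI broth dilution method. Bacteria at OD600 0.0005 in Tween-80-supplemented cation-adjusted Mueller Hinton broth face ten twofold compound dilutions for 22 h at 35° C.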
In general terms: Broth dilution looks for growth in wells or tubes with falling amounts of substance.

[1] abbreviates: ATCC25922, 22 h, Table 7, cation adjusted Mueller Hinton Broth + 0.002% Tween-80, 35° C.
[2] abbreviates: ATCC25922, Table 7, cation adjusted Mueller Hinton Broth + 0.002% Tween-80, 35° C., 22 hours.
The mark [3] stands for this setting: ATCC25922, 22 h, Table 6, cation adjusted Mueller Hinton Broth + 0.002% Tween-80, 35° C.
[4] abbreviates: ATCC25922, Table 6, cation adjusted Mueller Hinton Broth + 0.002% Tween-80, 35° C., 22 hours.

In general, MIC refers to the least concentration at which growth counts as inhibited. With `Cc1nc(-c2ccc(C(C)(C)C)cc2)nc(C)c1C(=O)N[C@@H](CCN)C(=O)N(C)[C@@H]1C(=O)N[C@@H](C)C(=O)N[C@H](C(=O)NCC#N)Cc2ccc(OCCN)c(c2)-c2cc1cc(OC[C@H](O)CN)c2O` (racemic) [Compound 588, rac-(8S,11S,14S)-3-(2-aminoethoxy)-N-(cyanomethyl)-18-hydroxy-11-methyl-14-[methyl-[rac-(2S)-4-amino-2-[[2-(4-tert-butylphenyl)-4,6-dimethyl-pyrimidine-5-carbonyl]amino]butanoyl]amino]-10,13-dioxo-17-[rac-(2R)-3-amino-2-hydroxy-propoxy]-9,12-diazatricyclo[13.3.1.12,6]icosa-1(18),2(20),3,5,15(19),16-hexaene-8-carboxamide], the minimal inhibitory concentration (MIC) under setting [1] amounted to 0.094 µM.
For `Cc1nc(-c2ccc(C(C)(C)C)cc2)nc(C)c1C(=O)N[C@@H](CCN)C(=O)N(C)[C@@H]1C(=O)N[C@@H](C)C(=O)N[C@H](C(=O)NCC#N)Cc2cc(OCCN)c(O)c(c2)-c2cc1ccc2OC[C@H](O)CN` (racemic) [Compound 594, rac-(8S,11S,14S)-4-(2-aminoethoxy)-N-(cyanomethyl)-3-hydroxy-11-methyl-14-[methyl-[rac-(2S)-4-amino-2-[[2-(4-tert-butylphenyl)-4,6-dimethyl-pyrimidine-5-carbonyl]amino]butanoyl]amino]-10,13-dioxo-18-[rac-(2R)-3-amino-2-hydroxy-propoxy]-9,12-diazatricyclo[13.3.1.12,6]icosa-1(18),2(20),3,5,15(19),16-hexaene-8-carboxamide], under setting [2], the minimal inhibitory concentration (MIC) was 0.13 µM.
Turning to `Cc1nc(-c2ccc(OC3CCCCC3)cc2)nc(C)c1C(=O)N[C@@H](CNS(N)(=O)=O)C(=O)N(C)[C@@H]1C(=O)N[C@@H](C)C(=O)N[C@H](C(=O)NCC#N)Cc2ccc(OCCCN)c(c2)-c2cc1ccc2OCCCN` (racemic) [Compound 576, rac-(8S,11S,14S)-3,18-bis(3-aminopropoxy)-N-(cyanomethyl)-11-methyl-14-[methyl-[rac-(2S)-2-[[2-[4-(cyclohexoxy)phenyl]-4,6-dimethyl-pyrimidine-5-carbonyl]amino]-3-(sulfamoylamino)propanoyl]amino]-10,13-dioxo-9,12-diazatricyclo[13.3.1.12,6]icosa-1(18),2(20),3,5,15(19),16-hexaene-8-carboxamide], under setting [1], the MIC was found to be 0.5 µM.
For `Cc1nc(-c2ccc(C(C)(C)C)cc2)nc(C)c1C(=O)N[C@@H](CCN)C(=O)N(C)[C@@H]1C(=O)N[C@@H](C)C(=O)N[C@H](C(=O)NCC#N)Cc2ccc3c(c2)-c2cc1ccc2OCC(O)(CN)CO3` (stereo partly shown) [Compound 440], the MIC under setting [3] worked out at 1 µM.
As to `Cc1nc(-c2ccc(C(C)(C)C)cc2)c(C(F)(F)F)cc1C(=O)N[C@@H](CCN)C(=O)N(C)[C@@H]1C(=O)N[C@@H](C)C(=O)N[C@H](C(=O)NCC#N)Cc2ccc(OCCN)c(c2)-c2cc1ccc2OCCN` (racemic) [Compound 537, rac-(8S,11S,14S)-3,18-bis(2-aminoethoxy)-N-(cyanomethyl)-11-methyl-14-[methyl-[rac-(2S)-4-amino-2-[[6-(4-tert-butylphenyl)-2-methyl-5-(trifluoromethyl)pyridine-3-carbonyl]amino]butanoyl]amino]-10,13-dioxo-9,12-diazatricyclo[13.3.1.12,6]icosa-1(18),2(20),3,5,15(19),16-hexaene-8-carboxamide], under setting [3], the MIC came to 0.25 µM.
For the molecule `Cc1nc(-c2ccc(C(C)(C)C)cc2)nc(C)c1C(=O)N[C@@H](CCN)C(=O)N(C)[C@@H]1C(=O)N[C@@H](C)C(=O)N[C@H](C(=O)NCC#N)Cc2ccc(O)c(c2)-c2cc1ccc2OC[C@H](O)CN` (racemic) [Compound 617, rac-(8S,11S,14S)-N-(cyanomethyl)-3-hydroxy-11-methyl-14-[methyl-[rac-(2S)-4-amino-2-[[2-(4-tert-butylphenyl)-4,6-dimethyl-pyrimidine-5-carbonyl]amino]butanoyl]amino]-10,13-dioxo-18-[rac-(2R)-3-amino-2-hydroxy-propoxy]-9,12-diazatricyclo[13.3.1.12,6]icosa-1(18),2(20),3,5,15(19),16-hexaene-8-carboxamide], the minimum inhibitory concentration (MIC) under setting [1] amounted to 0.19 µM.
In the case of `Cc1nc(-c2ccc(OC(C)C)cc2)nc(C)c1C(=O)N[C@@H](CCN)C(=O)N(C)[C@@H]1C(=O)N[C@@H](C)C(=O)N[C@H](C(=O)NCC#N)Cc2ccc(OC[C@H](O)CN)c(c2)-c2cc1ccc2OC[C@H](O)CN` (racemic) [Compound 569, rac-(8S,11S,14S)-N-(cyanomethyl)-11-methyl-14-[methyl-[rac-(2S)-4-amino-2-[[2-(4-isopropoxyphenyl)-4,6-dimethyl-pyrimidine-5-carbonyl]amino]butanoyl]amino]-10,13-dioxo-3,18-bis[rac-(2R)-3-amino-2-hydroxy-propoxy]-9,12-diazatricyclo[13.3.1.12,6]icosa-1(18),2(20),3,5,15(19),16-hexaene-8-carboxamide], under setting [2], the MIC worked out at 0.5 µM.
In the case of `C[C@@H]1NC(=O)[C@@H](N(C)C(=O)[C@H](CCN)NC(=O)c2cnc(-c3ccc(C(C)(C)C)cc3)nc2OCC(=O)O)c2ccc(OCCN)c(c2)-c2cc(ccc2OCCN)C[C@@H](C(=O)NCC#N)NC1=O` (racemic) [Compound 420, 2-[2-(4-tert-butylphenyl)-5-[[rac-(1S)-3-amino-1-[methyl-[rac-(7S,10S,13S)-3,18-bis(2-aminoethoxy)-13-(cyanomethylcarbamoyl)-10-methyl-8,11-dioxo-9,12-diazatricyclo[13.3.1.12,6]icosa-1(19),2,4,6(20),15,17-hexaen-7-yl]carbamoyl]propyl]carbamoyl]pyrimidin-4-yl]oxyacetic acid], the minimal inhibitory concentration (MIC) under setting [4] amounted to 3 µM.
`CC(=N)NCCOc1ccc2cc1-c1cc(ccc1O)C[C@@H](C(=O)NCC#N)NC(=O)[C@H](C)NC(=O)[C@H]2N(C)C(=O)[C@H](CCN)NC(=O)c1c(C)nc(-c2ccc(C(C)(C)C)cc2)nc1C` (racemic) [Compound 603, rac-(8S,11S,14S)-N-(cyanomethyl)-18-[2-(ethanimidoylamino)ethoxy]-3-hydroxy-11-methyl-14-[methyl-[rac-(2S)-4-amino-2-[[2-(4-tert-butylphenyl)-4,6-dimethyl-pyrimidine-5-carbonyl]amino]butanoyl]amino]-10,13-dioxo-9,12-diazatricyclo[13.3.1.12,6]icosa-1(18),2(20),3,5,15(19),16-hexaene-8-carboxamide]: the MIC under setting [2] was determined as 0.44 µM.
For the molecule `Cc1nc(-c2ccc(OC3CCCCC3)cc2)nc(C)c1C(=O)N[C@@H](CC(N)=O)C(=O)N(C)[C@@H]1C(=O)N[C@@H](C)C(=O)N[C@H](C(=O)NCC#N)Cc2ccc(OCCN)c(c2)-c2cc1ccc2OCCN` [Compound 506, (2S)-N-[(7S,10S,13S)-3,18-bis(2-aminoethoxy)-13-(cyanomethylcarbamoyl)-10-methyl-8,11-dioxo-9,12-diazatricyclo[13.3.1.12,6]icosa-1(19),2,4,6(20),15,17-hexaen-7-yl]-2-[[2-[4-(cyclohexoxy)phenyl]-4,6-dimethyl-pyrimidine-5-carbonyl]amino]-N-methyl-butanediamide], the MIC under setting [4] was determined as 0.83 µM.
